From US20230203004A1, “RSV INHIBITING 3-SUBSTITUTED QUINOLINE AND CINNOLINE DERIVATIVES” (Janssen Sciences Ireland Unlimited Company, priority 2020, published 2023)
Where two headings read alike, the source gives them in different places.

Assays:
[1] = Cytotoxicity in HeLa cells (ATP content, ATPlite kit); assay type: cell-based; settings: human
Method: (§1) Black 384-well clear-bottom microtiter plates (Corning, Amsterdam, The Netherlands) were filled via acoustic drop ejection using the echo liquid handler (Labcyte, Sunnyvale, California). 200 nL of compound stock solutions (100% DMSO) were transferred to the assay plates. 9 serial 4-fold dilutions of compound were made, creating per quadrant the same compound concentration. The assay was initiated by adding 10 µL of culture medium to each well (RPMI medium without phenol red, 10% FBS-heat inactivated, 0.04% gentamycin (50 mg/mL). All addition steps are done by using a multidrop dispenser (Thermo Scientific, Erembodegem, Belgium). Next, rgRSV224 virus (MOI = 1) diluted in culture medium was added to the plates. rgRSV224 virus is an engineered virus that includes an additional GFP gene (Hallak LK, Spillmann D, Collins PL, Peeples ME. Glycosaminoglycan sulfation requirements for respiratory syncytial virus infection; Journal of virology (2000), 74(22), 10508-13) and was in-licensed from the NIH (Bethesda, MD, USA). Finally, 20 µL of a HeLa cell suspension (3,000 cells/well) were plated. Medium, virus- and mock-infected controls were included in each test. The wells contain […] DMSO per volume. Cells were incubated at 37° C. in a 5% CO2 atmosphere. Three days post-virus exposure, viral replication was quantified by measuring GFP expression in the cells by an in house developed MSM laser microscope (Tibotec, Beerse, Belgium). The EC50 was defined as the 50% inhibitory concentration for GFP expression. In parallel, compounds were incubated for three days in a set of white 384-well microtiter plates (Corning) and the cytotoxicity of compounds in HeLa cells was determined by measuring the ATP content of the cells using the ATPlite kit (Perkin Elmer, Zaventem, Belgium) according to the manufacturer’s instructions. The CC50 was defined as the 50% concentration for cytotoxicity.

rgRSV224 virus = assay: Antiviral activity: rgRSV224 (GFP) replication in HeLa cells; assay type: cell-based, respiratory syncytial virus (RSV)
Method: as §1

[2] = human respiratory syncytial virus, HeLa, 72 h, read-out: RSV HELA EC50, HeLa cells, rgRSV224 MOI = 1, GFP expression three days post-virus exposure, averaged data of several repeat experiments
[3] = human respiratory syncytial virus, HeLa, comparison table 5.3, antiviral RSV assay of Example 5.1
[4] = read-out: RSV HELA EC50, HeLa cells, rgRSV224 MOI = 1, GFP expression three days post-virus exposure, averaged data of several repeat experiments

SMILES	CC50 at 3 days ([1]; TOX HELA CC50)	EC50 (rgRSV224 virus; [2])	CC50 at 3 days ([1]; CC50)	EC50 (rgRSV224 virus; [3])	EC50 (rgRSV224 virus; [4])
COc1cc(C(=O)NC[C@](O)(c2cc(C(C)(C)O)c(F)c(-c3ccc(F)cc3)n2)C2C[C@@H]2F)cc2cc(C)nnc12 (single isomer, unassigned) [compound 302, N-((*S)(5-Fluoro-6-(4-Fluorophenyl)-4-(2-Hydroxypropanyl)Pyridinyl)((1*S.2*S)Fluorocyclopropyl)Hydroxyethyl)-8-Methoxy-3-Methylcinnoline-6-Carboxamide]	> 25 µM	0.0012 µM			
COc1cc(C(=O)NC[C@@](O)(c2cc(C(C)(C)O)c(F)c(-c3ccc(F)cc3)n2)C2CC2)cc2cc(C)nnc12 [compound 275]	17 µM	0.097 µM			
COc1cc(C(=O)NC[C@](O)(c2cc(C(C)(C)O)c(F)c(-c3ccc(F)cc3)n2)C(C)(F)F)cc2cc(C)nnc12 [compound 313, (-)-N-(3,3-difluoro-2-(5-fluoro-6-(4-fluorophenyl)-4-(2-hydroxypropan-2-yl)pyridin-2-yl)-2-hydroxybutyl)-8-methoxy-3-methylcinnoline-6-carboxamide]	42 µM	0.001 µM			
COc1cc(C(=O)NC[C@](O)(c2nc(-c3ccc(F)cc3)c(F)c(C(C)(C)O)c2F)C(F)(F)F)cc2cc(C3CC3)cnc12 [compound 228, (-)Cyclopropyl-N-{2-[3,5-Difluoro-6-(4-Fluorophenyl)-4-(2-Hydroxypropan-2-yl)Pyridin-2-yl]-3,3,3-Trifluoro-2-Hydroxypropyl}-8-Methoxyquinoline-6-Carboxamide]	10 µM	0.013 µM			
COc1cc(C(=O)NC[C@](O)(c2cc(C(C)(C)NS(C)(=O)=O)c(Cl)c(-c3ccc(F)cc3)n2)C(F)(F)F)cc2cc(C)nnc12 [compound 276, (-)-N-{2-[5-Chloro-6-(4-Fluorophenyl)-4-{2-[(Methanesulfonyl)Amino]Propan-2-yl}Pyridin-2-yl]-3,3,3-Trifluoro-2-Hydroxypropyl}-8-Methoxy-3-Methylcinnoline-6-Carboxamide]	51 µM	0.0038 µM			
COc1cc(C(=O)NC[C@](O)(c2cc(C(C)(C)O)c(F)c(-c3ccc(F)cc3)n2)C2CC2)cc2cc(C(F)F)cnc12 [compound 227, N-{(-)Cyclopropyl[5-Fluoro-6-(4-Fluorophenyl)-4-(2-Hydroxypropanyl)Pyridinyl]Hydroxyethyl}-3-(Difluoromethyl)-8-Methoxyquinoline-6-Carboxamide]	15 µM	0.0011 µM			
COc1cc(C(=O)NC[C@](O)(c2cc(C(C)(C)O)c(Cl)c(-c3ccc(F)cc3)n2)C(F)(F)F)cc2cc(C(F)F)nnc12 [compound 267, (-)-N-{2-[5-Chloro-6-(4-Fluorophenyl)-4-(2-Hydroxypropan-2-yl)Pyridin-2-yl]-3,3,3-Trifluoro-2-Hydroxypropyl}-3-(Difluoromethyl)-8-Methoxycinnoline-6-Carboxamide]	14 µM	0.003 µM			
COc1cc(C(=O)NC[C@@](O)(c2cc(C(C)(C)O)c(F)c(-c3ccc(F)cc3)n2)C2C[C@@H]2F)cc2cc(C)nnc12 (single isomer, unassigned) [compound 301, N-((*R)(5-Fluoro-6-(4-Fluorophenyl)-4-(2-Hydroxypropanyl)Pyridinyl)((1*R,2*S)Fluorocyclopropyl)Hydroxyethyl)-8-Methoxy-3-Methylcinnoline-6-Carboxamide]	22 µM	0.336 µM			
COc1cc(C(=O)NC[C@](O)(c2cc(C(C)(C)O)c(F)c(-c3ccc(F)cc3)n2)C(F)(F)F)cc2cc(C)nnc12 [compound 234]	23 µM		23 µM	0.0006 µM	0.00082 µM
COc1cc(C(=O)NC[C@](O)(c2cc(C(C)(C)O)c(F)c(-c3ccc(F)c(F)c3)n2)C(F)(F)F)cc2cc(C)nnc12 [compound 239, (-)-N-{2-[6-(3,4-Difluorophenyl)-5-Fluoro-4-(2-Hydroxypropan-2-yl)Pyridin-2-yl]-3,3,3-Trifluoro-2-Hydroxypropyl}-8-Methoxy-3-Methylcinnoline-6-Carboxamide]	19 µM	0.0005 µM			
COc1cc(C(=O)NC[C@](O)(c2cc(C(C)(C)O)cc(-c3ccc(F)cc3)n2)C2CC2)cc2cc(C)nnc12 [compound 304]	23 µM	0.0021 µM			
Cc1cnc2c(OC3CC3)cc(C(=O)NC[C@](O)(c3cc(C(C)(C)O)c(F)c(-c4ccc(F)cc4)n3)C(F)(F)F)cc2c1 [compound 272, (-)8-(Cyclopropyloxy)-3-Methyl-N-{(2S)-3,3,3-Trifluoro-2-[5-Fluoro-6-(4-Fluorophenyl)-4-(2-Hydroxypropan-2-yl)Pyridin-2-yl]-2-Hydroxypropyl}Quinoline-6-Carboxamide]	17 µM	0.0037 µM	17 µM	0.004 µM	
[2H]C([2H])(NC(=O)c1cc(OC)c2nnc(C)cc2c1)[C@](O)(c1cc(C(C)(C)O)c(F)c(-c2ccc(F)cc2)n1)C1CC1 [compound 316]	33 µM	0.00034 µM			
[2H]C([2H])(NC(=O)c1cc(OC)c2nnc(C)cc2c1)[C@@](O)(c1cc(C(C)(C)O)c(F)c(-c2ccc(F)cc2)n1)C1CC1 [compound 315]	27 µM	0.047 µM			
COc1cc(C(=O)NC[C@](O)(c2cc(C(C)(C)O)c(F)c(-c3ccc(F)cc3)n2)C(F)F)cc2cc(C(F)F)nnc12 [compound 292, (-)-N-(3,3-difluoro-2-(5-fluoro-6-(4-fluorophenyl)-4-(2-hydroxypropan-2-yl)pyridin-2-yl)-2-hydroxypropyl)-3-(difluoromethyl)-8-methoxycinnoline-6-carboxamide]	29 µM	0.012 µM			
COc1cc(C(=O)NCC(O)(c2cc(C(C)(C)NC(C)=O)c(F)c(-c3ccc(F)cc3)n2)C(F)(F)F)cc2cc(C)nnc12 (single isomer, unassigned; (-)) [compound 235, (-)-N-{2-[4-(2-Acetamidopropan-2-yl)-5-Fluoro-6-(4-Fluorophenyl)Pyridin-2-yl]-3,3,3-Trifluoro-2-Hydroxypropyl}-8-Methoxy-3-Methylcinnoline-6-Carboxamide]	25 µM	0.00062 µM			
COc1cc(C(=O)NCC(O)(c2cc(C(C)(C)O)c(F)c(-c3ccc(F)cc3)n2)C(F)F)cc2cc(C)nnc12 (single isomer, unassigned; (+)) [compound 249, (+)-N-{3,3-Difluoro-2-[5-Fluoro-6-(4-Fluorophenyl)-4-(2-Hydroxypropan-2-yl)Pyridin-2-yl]-2-Hydroxypropyl}-8-Methoxy-3-Methylcinnoline-6-Carboxamide]	35 µM				> 1.25 µM
COc1cc(C(=O)NC[C@@](O)(c2nc(-c3ccc(F)cc3)c(F)c(C(C)(C)NC(C)=O)c2F)C(F)(F)F)cc2cc(C)nnc12 [compound 242, (+)-N-{2-[4-(2-Acetamidopropan-2-yl)-3,5-Difluoro-6-(4-Fluorophenyl)Pyridin-2-yl]-3,3,3-Trifluoro-2-Hydroxypropyl}-8-Methoxy-3-Methylcinnoline-6-Carboxamide]	48 µM	0.17 µM			
COc1cc(C(=O)NC[C@](O)(c2cc(C(C)(C)O)c(Cl)c(-c3ccc(F)cc3)n2)C2CC2)cc2cc(C(F)(F)F)cnc12 [compound 331]	14 µM	0.0038 µM			
COc1cc(C(=O)NC[C@](O)(c2cc(C(C)(C)O)c(Cl)c(-c3ccc(F)cc3)n2)C2CC2)cc2cc(C(F)F)nnc12 [compound 268, N-{(-)[5-Chloro-6-(4-Fluorophenyl)-4-(2-Hydroxypropanyl)Pyridinyl]CyclopropylHydroxyethyl}-3-(Difluoromethyl)-8-Methoxycinnoline-6-Carboxamide]	18 µM	0.00067 µM			
COc1cc(C(=O)NCC(O)(c2cc(C(C)(C)O)c(F)c(-c3ccc(C4CC4)cc3)n2)C2CC2)cc2cc(C)nnc12 (single isomer, unassigned; (-)) [compound 254, (-)-N-{2-Cyclopropyl-2-[6-(4-Cyclopropylphenyl)-5-Fluoro-4-(2-Hydroxypropan-2-yl)Pyridin-2-yl]-2-Hydroxyethyl}-8-Methoxy-3-Methylcinnoline-6-Carboxamide]	15 µM	0.0035 µM			
COc1cc(C(=O)NC[C@](O)(c2cc(C(C)(C)O)c(Cl)c(-c3ccc(F)cc3)n2)C(F)(F)F)cc2cc(C(F)(F)F)nnc12 [compound 277]	15 µM	0.016 µM			
